Experimental findings from US20220323446A1 (Amgen Inc., priority 2021, published 2022) are described below.

The target of data set [1] is T1, P-gp (Homo sapiens, UniProt P08183).
Procedure: (§1) Blood samples for digoxin PK were collected predose and up to 144 hours post-digoxin dose. Samples were measured using validated high-performance liquid chromatography tandem mass spectrometry methods. PK parameters were estimated using non-compartmental methods.
The target in data set [2] is T1, P-gp. The data set can be described thus: clinical. Particulars: plasma, 0.5 mg.
Procedure: as §1
The target of data set [3] is CYP3A4 (Homo sapiens, UniProt P08684). The data set can be described thus: Phase 1 interaction study, midazolam (CYP3A4 substrate) with sotorasib. The following applies: 2 mg midazolam with 960 mg sotorasib after 14 days daily sotorasib vs midazolam alone.
Sequence of CYP3A4 (P08684 whole entry): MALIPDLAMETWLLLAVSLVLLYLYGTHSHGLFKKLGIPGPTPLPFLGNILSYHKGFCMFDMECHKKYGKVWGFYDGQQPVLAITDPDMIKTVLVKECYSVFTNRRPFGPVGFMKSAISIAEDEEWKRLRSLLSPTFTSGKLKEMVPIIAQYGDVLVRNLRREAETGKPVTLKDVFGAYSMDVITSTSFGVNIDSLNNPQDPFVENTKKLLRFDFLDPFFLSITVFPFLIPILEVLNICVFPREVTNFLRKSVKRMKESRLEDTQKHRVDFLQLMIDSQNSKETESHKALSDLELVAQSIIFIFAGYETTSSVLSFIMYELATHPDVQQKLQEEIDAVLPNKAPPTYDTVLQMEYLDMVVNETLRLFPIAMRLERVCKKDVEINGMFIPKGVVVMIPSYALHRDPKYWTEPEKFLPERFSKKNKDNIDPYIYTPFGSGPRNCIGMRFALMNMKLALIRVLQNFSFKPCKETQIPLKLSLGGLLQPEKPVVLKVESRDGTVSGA
[4] abbreviates: 0.5 mg digoxin, 960 mg sotorasib.
[5] abbreviates: with a single dose of sotorasib vs digoxin alone.

T1 sequence (P08183 whole entry): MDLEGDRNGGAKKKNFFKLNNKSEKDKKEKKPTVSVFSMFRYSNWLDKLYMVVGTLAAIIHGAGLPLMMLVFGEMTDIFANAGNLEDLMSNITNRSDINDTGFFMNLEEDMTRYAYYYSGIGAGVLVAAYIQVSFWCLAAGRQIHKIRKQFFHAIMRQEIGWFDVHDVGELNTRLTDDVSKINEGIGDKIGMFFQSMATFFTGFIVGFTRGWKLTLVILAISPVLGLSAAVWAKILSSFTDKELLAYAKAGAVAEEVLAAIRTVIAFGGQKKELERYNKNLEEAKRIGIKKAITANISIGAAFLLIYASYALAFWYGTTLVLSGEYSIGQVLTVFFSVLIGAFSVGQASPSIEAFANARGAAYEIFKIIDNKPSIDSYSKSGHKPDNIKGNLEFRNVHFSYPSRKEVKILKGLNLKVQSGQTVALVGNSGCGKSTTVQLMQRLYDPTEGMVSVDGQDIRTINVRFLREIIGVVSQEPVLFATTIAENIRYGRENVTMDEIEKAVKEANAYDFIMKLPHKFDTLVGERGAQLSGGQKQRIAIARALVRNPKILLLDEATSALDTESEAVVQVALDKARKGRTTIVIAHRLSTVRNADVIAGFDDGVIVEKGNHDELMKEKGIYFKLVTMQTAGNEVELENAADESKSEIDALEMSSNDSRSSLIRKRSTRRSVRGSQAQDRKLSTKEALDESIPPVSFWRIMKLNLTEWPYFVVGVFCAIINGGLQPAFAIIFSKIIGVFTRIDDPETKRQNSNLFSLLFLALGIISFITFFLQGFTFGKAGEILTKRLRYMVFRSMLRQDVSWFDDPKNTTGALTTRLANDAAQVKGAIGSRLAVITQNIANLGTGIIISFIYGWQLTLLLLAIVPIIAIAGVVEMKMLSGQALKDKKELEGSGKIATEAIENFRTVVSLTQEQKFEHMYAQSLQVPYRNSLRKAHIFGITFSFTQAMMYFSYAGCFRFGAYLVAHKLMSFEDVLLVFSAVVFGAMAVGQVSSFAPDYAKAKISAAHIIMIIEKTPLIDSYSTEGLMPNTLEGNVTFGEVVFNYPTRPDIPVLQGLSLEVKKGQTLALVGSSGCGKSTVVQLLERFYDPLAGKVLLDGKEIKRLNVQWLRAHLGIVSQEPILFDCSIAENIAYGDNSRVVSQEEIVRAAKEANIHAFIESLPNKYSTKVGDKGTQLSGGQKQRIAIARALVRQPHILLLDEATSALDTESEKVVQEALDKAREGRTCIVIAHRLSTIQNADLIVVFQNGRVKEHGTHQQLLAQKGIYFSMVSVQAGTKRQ

By AUC(0-inf) is commonly meant the area under the concentration-time curve extrapolated to infinity. High values mean more exposure, low ones less exposure. For orientation: Cmax means the maximum level reached in the sampled fluid or tissue. For `C[C@H]1O[C@@H](O[C@H]2[C@@H](O)C[C@H](O[C@H]3[C@@H](O)C[C@H](O[C@H]4CC[C@@]5(C)[C@H](CC[C@@H]6[C@@H]5C[C@@H](O)[C@]5(C)[C@@H](C7=CC(=O)OC7)CC[C@]65O)C4)O[C@@H]3C)O[C@@H]2C)C[C@H](O)[C@@H]1O` [digoxin], in data set [1] (setting [4]), the “Digoxin mean terminal half-life (t1/2) with sotorasib compared to alone” value is “similar” and the “Digoxin median time to maximal plasma concentration (tmax) with sotorasib compared to alone” value was “similar”. The safety and tolerability entry in data set [1] (single doses of 0.5 mg digoxin alone or with 960 mg sotorasib) was “safe and well tolerated”. For the same compound, in data set [1] (setting [5]), the “increase of digoxin AUCinf” value is “approximately 21%” and the “increase of digoxin Cmax” value is on record as roughly 91%. For the same compound, in data set [2], the AUC(0-inf) was 33.2 ng·h/mL and the Cmax amounted to 1.9 ng/mL.

Take `Cc1ncc2n1-c1ccc(Cl)cc1C(c1ccccc1F)=NC2` [midazolam]: in data set [3], the “decrease of midazolam AUV” value was 53% and the “decrease of midazolam Cmax” value amounted to 48%.
